Test results taken from publication PMC11377810, “A Gaussia luciferase reporter assay for the evaluation of coronavirus Nsp5/3CLpro activity” (Scientific Reports, 2024).
pIC50: −log10 of the molar value.

Key:
[1] = system: COVID-19; conditions: cited from earlier work
[2] = system: HEK293T reporter cells; experiment: MTT assay of cell metabolic activity of reporter cells; conditions: at the active concentrations ≥ 20 µM, Fig. 4c
[3] = target: T1, SARS-CoV-2 Nsp5 (Severe acute respiratory syndrome coronavirus 2, UniProt P0DTD1)
[4] = target: T1, SARS-CoV-2 Nsp5; experiment: cell-based
[5] = system: HEK293T reporter cells
[6] = in vivo, cited from earlier work

**Q.** For `Cc1cccc(C)c1OCC(=O)N[C@@H](Cc1ccccc1)[C@@H](O)C[C@H](Cc1ccccc1)NC(=O)[C@H](C(C)C)N1CCCNC1=O` [Lopinavir], which “benefit in the treatment of COVID-19” value ([1]; COVID-19 patients, clinical trials) is on record?
**A.** The value was “little to no benefit”.

**Q.** What about the “benefit in COVID-19 patients” value ([1]; multiple clinical trials) of the same compound?
**A.** Its value is “no significant benefit”.

**Q.** And the “cytotoxicity (MTT)” value [2]?
**A.** The value was “cytotoxic at all of the tested active concentrations”.

**Q.** And the “concentrations that significantly decreased the Gaussia luciferase signal (lowest significantly active dose)” value [3]?
**A.** Its value is no less than 20 µM.

**Q.** And the “effective and non-cytotoxic concentration range” value [3]?
**A.** The value was 8 to 64 µM.

**Q.** And the pIC50 ([4]; IC50, inhibition of Nsp5 reporter (Gaussia luciferase) activity)?
**A.** Its pIC50 is 4.68.

**Q.** And the pIC50 ([4]; IC50, inhibition of Nsp5 reporter activity, re-evaluated at lower nontoxic concentrations, additional concentrations, 8–64 µM range (Fig. 4e))?
**A.** The pIC50 was 4.92.

**Q.** With `COc1cccc2[nH]c(C(=O)N[C@@H](CC(C)C)C(=O)N[C@@H](C[C@@H]3CCNC3=O)C(=O)CO)cc12` [PF-00835231] as the compound, how does the non-cytotoxic concentrations [5] read?
**A.** Its non-cytotoxic concentrations is no more than 50 µM.

**Q.** With `COc1cccc2[nH]c(C(=O)N[C@@H](CC(C)C)C(=O)N[C@@H](C[C@@H]3CCNC3=O)C(=O)COP(=O)(O)O)cc12` [Lufotrelvir] as the compound, how does the oral bioavailability ([6]; po) read?
**A.** Its oral bioavailability is “low”.

**Q.** And the systemic clearance [6]?
**A.** Its systemic clearance is “fast”.
